In assay [1] the target is T1, CCR4 (Homo sapiens, UniProt P51679).
T1 construct: expressed in transfected cells; host or cells: CHO cell membranes
T1 sequence (P51679 1-360): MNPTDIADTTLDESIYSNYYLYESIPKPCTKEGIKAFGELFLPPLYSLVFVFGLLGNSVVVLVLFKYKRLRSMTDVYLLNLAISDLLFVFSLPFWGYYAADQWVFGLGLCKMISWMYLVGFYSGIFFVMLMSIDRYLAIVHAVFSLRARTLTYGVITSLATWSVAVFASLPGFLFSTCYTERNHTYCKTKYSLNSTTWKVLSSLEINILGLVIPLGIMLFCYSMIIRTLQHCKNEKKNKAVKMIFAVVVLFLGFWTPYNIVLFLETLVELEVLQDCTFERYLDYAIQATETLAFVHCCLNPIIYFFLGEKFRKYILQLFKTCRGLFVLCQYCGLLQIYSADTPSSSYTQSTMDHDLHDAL
In words: [35S]-GTPγS SPA binding assay for CCR4 antagonist activity. In kind it is biochemical. The settings on record: CCR4 expressing CHO membranes; human MDC at EC80; [35S]-GTPγS competition. How it is done:
[35S]-GTPγS SPA Binding Assays for CCR4 Antagonist Activity
Antagonist potency was determined by a radioligand [35S]-GTPγS competition assay. Briefly, CCR4 expressing CHO membranes were homogenised by passing through a 23G needle. These membranes were then adhered to WGA-coated Leadseeker SPA beads in assay buffer (20 mM HEPES, 10 mM MgCl2, 100 mM NaCl, 0.05% BSA, 40 ug/ml Saponin and pH adjusted to 7.4 using KOH 5M) to generate a 3 μg/well final assay concentration (FAC) membrane and 250 μg/well FAC bead, solution.
The bead/membrane/[35S]-GTPγS/Agonist suspension was dispensed into white Greiner polypropylene 384-well plates (45 μl/well), containing 0.5 μl of compound. […] Plates were then read on a Viewlux instrument and luminescence was then plotted as a percentage of the maximum inhibitional response elicited by an IC100 of a standard antagonist.
In general terms: Binding of GTPγS marks nucleotide exchange on a G protein.

For assay [2], the system named is CD4+ CCR4+ T cells. The assay can be described thus: Chemokine stimulated increases in cellular F-actin content. In kind it is cell-based. The conditions noted are these: Homo sapiens, T-cell, 0.5 h; PBMC from normal volunteers; antagonist 30 min at 37° C. before agonist for 15 sec; F-actin content by flow cytometry; read-out: pA2 (converted). As for the experimental part:
Chemokine Stimulated Increases in Cellular F-Actin Content
Blood was taken from normal volunteers who had taken no medication within the previous ten days and mixed with 1/9 of the volume of 3.8% tri-sodium citrate solution. Chemokine-induced increases in the F-actin content of CD4+ CCR4+ T cells were measured by a modification of the method of Pilette et al. (Eur. Respir. J; 23: 876-884, 2004). Peripheral blood mononuclear cells (PBMC) were isolated by dextran sedimentation followed by Percoll density gradient centrifugation. The PBMCs were incubated with FITC-conjugated anti-human CD4 and PE-conjugated anti-CCR4 antibodies or appropriate isotype controls for 15 min. The cell suspensions were then centrifuged at 400 g for 10 min and the pellets resuspended in assay buffer (phenol red-free RPMI 1640 medium containing 10 mM HEPES and 0.1% bovine serum albumin) at 10^7/mL. The resulting cell suspension was incubated with antagonist or vehicle (0.1% DMSO) for 30 min at 37° C. before stimulation with the agonist for 15 sec. The assay was terminated by addition of 3% formaldehyde. The fixed cells were washed twice with PBS (centrifuging at 1000 g for 5 min to recover the cells) and incubated at room temperature with Alexa fluor-647 phalloidin (0.075 U/mL) in the presence of lyso-phosphatidylcholine (93.75 μg/ml) for 20 min to stain F-actin. The cells were washed once more with PBS and the relative F-actin content of the cells was measured flow cytometrically. The mean fluorescence intensity of 1000 CD4^+ CCR4^+ cells per sample was determined and expressed as a fraction of the mean intensity of the CD4^+ CCR4^− cells in that sample.
For orientation: Flow cytometry measures light scatter and fluorescence of single cells or particles in a stream.

The structures appear in SMILES notation. Structures can show the parent of a compound that is named as a salt.

By IC50 is commonly meant the point on the concentration scale where inhibition reaches its midpoint. Low readings indicate higher potency, high ones lower potency. Consider `COc1cccc2c1c(NS(=O)(=O)c1ccc(Cl)s1)nn2Cc1cccc(CNC(=O)C[C@H](N)C(=O)O)c1` [Example 80, N^4-[(3-{[3-{[(5-Chloro-2-thienyl)sulfonyl]amino}-4-(methyloxy)-1H-indazol-1-yl]methyl}phenyl)methyl]-L-asparagine trifluoroacetate], for which, in assay [1], the half-maximal inhibitory concentration (IC50) was 3.98 to 15.8 nM. On the same count and under the same terms, the result for `COc1cccc2c1c(NS(=O)(=O)c1ccc(Cl)s1)nn2Cc1cccc(CNC(=O)[C@@H](N)Cc2c[nH]c3ccccc23)c1` [Example 114, N-[(3-{[3-{[(5-Chloro-2-thienyl)sulfonyl]amino}-4-(methyloxy)-1H-indazol-1-yl]methyl}phenyl)methyl]-L-tryptophanamide] reads 3.98 to 15.8 nM. With `COc1cc(F)cc2c1c(NS(=O)(=O)c1ccc(Cl)s1)nn2Cc1cccc(CNC(=O)C2COCCN2C)c1` (stereo not drawn) [Example 133, N-[(3-{[3-{[(5-Chloro-2-thienyl)sulfonyl]amino}-6-fluoro-4-(methyloxy)-1H-indazol-1-yl]methyl}phenyl)methyl]-4-methyl-3-morpholinecarboxamide], the IC50 in assay [1] was 3.98 to 15.8 nM. Same read-out and setting: the result for `CC(O)c1cccc2c1c(NS(=O)(=O)c1ccc(Cl)s1)nn2Cc1cccc(CNC(=O)C(C)(C)O)c1` (stereo not drawn) [Example 151, N-[(3-{[3-{[(5-Chloro-2-thienyl)sulfonyl]amino}-4-(1-hydroxyethyl)-1H-indazol-1-yl]methyl}phenyl)methyl]-2-hydroxy-2-methylpropanamide] reads 3.98 to 15.8 nM; that for `CNCC(=O)NCc1cccc(Cn2nc(NS(=O)(=O)c3ccc(Cl)s3)c3c(OC)cccc32)c1` [Example 85, N^1-[(3-{[3-{[(5-Chloro-2-thienyl)sulfonyl]amino}-4-(methyloxy)-1H-indazol-1-yl]methyl}phenyl)methyl]-N^2-methylglycinamide trifluoroacetate], 3.98 to 15.8 nM. `COc1cccc2c1c(NS(=O)(=O)c1ccc(Cl)s1)nn2Cc1cccc(CNC(=O)CCCCC(=O)O)c1` [Example 140, 6-{[(3-{[3-{[(5-Chloro-2-thienyl)sulfonyl]amino}-4-(methyloxy)-1H-indazol-1-yl]methyl}phenyl)methyl]amino}-6-oxohexanoic acid]: in assay [1], the IC50 was 3.98 to 15.8 nM. As for `COc1cccc2c1c(NS(=O)(=O)c1ccc(Cl)s1)nn2Cc1cccc(CNC(=O)C2(N)CC2)c1` [Example 84, 1-Amino-N-[(3-{[3-{[(5-chloro-2-thienyl)sulfonyl]amino}-4-(methyloxy)-1H-indazol-1-yl]methyl}phenyl)methyl]cyclopropanecarboxamide trifluoroacetate], the Kb in assay [2] is at most 126 nM. On the same count and under the same terms, the value for `COc1cccc2c1c(NS(=O)(=O)c1ccc(Cl)s1)nn2Cc1cccc(CNC(=O)[C@@H](N)Cc2ccccc2)c1` [Example 47, N-[(3-{[3-{[(5-Chloro-2-thienyl)sulfonyl]amino}-4-(methyloxy)-1H-indazol-1-yl]methyl}phenyl)methyl]-L-phenylalaninamide] was at most 126 nM; that for `COc1cccc2c1c(NS(=O)(=O)c1ccc(Cl)s1)nn2Cc1cccc(CNC(=O)[C@H](N)CC(C)C)c1` [Example 45, N^1-[(3-{[3-{[(5-Chloro-2-thienyl)sulfonyl]amino}-4-(methyloxy)-1H-indazol-1-yl]methyl}phenyl)methyl]-D-leucinamide] was at most 126 nM.

On to `COc1cccc2c1c(NS(=O)(=O)c1ccc(Cl)s1)nn2Cc1cccc(CNC(=O)[C@@]2(C)CCCN2)c1` [Example 13, N-[(3-{[3-{[(5-Chloro-2-thienyl)sulfonyl]amino}-4-(methyloxy)-1H-indazol-1-yl]methyl}phenyl)methyl]-2-methyl-D-prolinamide], for which the Kb in assay [2] was at most 126 nM. For the compound `COc1cc(F)cc2c1c(NS(=O)(=O)c1ccc(Cl)s1)nn2Cc1cccc(CNC(C)=O)c1` [Example 129, N-[(3-{[3-{[(5-Chloro-2-thienyl)sulfonyl]amino}-6-fluoro-4-(methyloxy)-1H-indazol-1-yl]methyl}phenyl)methyl]acetamide], the Kb in assay [2] was at most 126 nM. Same read-out and setting: the value for `COc1cccc2c1c(NS(=O)(=O)c1ccc(Cl)s1)nn2Cc1cccc(C(=O)NCCN(C)C)c1` [Example 65, 3-{[3-{[(5-Chloro-2-thienyl)sulfonyl]amino}-4-(methyloxy)-1H-indazol-1-yl]methyl}-N-[2-(dimethylamino)ethyl]benzamide] was at most 126 nM; that for `CNC(C)(C)C(=O)NCc1cccc(Cn2nc(NS(=O)(=O)c3ccc(Cl)s3)c3c(OC)cccc32)c1` [Example 56, N1-[(3-{[3-{[(5-Chloro-2-thienyl)sulfonyl]amino}-4-(methyloxy)-1H-indazol-1-yl]methyl}phenyl)methyl]-N2,2-dimethylalaninamide formate] was at most 126 nM; that for `COc1ccc(Cn2nc(NS(=O)(=O)c3ccc(C)s3)c3c(OC)cccc32)cc1OC` [Example 118, N-[1-{[3,4-Bis(methyloxy)phenyl]methyl}-4-(methyloxy)-1H-indazol-3-yl]-5-methyl-2-thiophenesulfonamide] was at most 126 nM. For `COc1cccc2c1c(NS(=O)(=O)c1ccc(Cl)s1)nn2Cc1cccc(CNC(=O)[C@@H]2CCCN2)c1` [Example 158, N-[(3-{[3-{[(5-Chloro-2-thienyl)sulfonyl]amino}-4-(methyloxy)-1H-indazol-1-yl]methyl}phenyl)methyl]-L-prolinamide trifluoroacetate], the Kb in assay [2] was at most 126 nM. Consider `COc1cccc2c1c(NS(=O)(=O)c1ccc(Cl)s1)nn2Cc1cccc(CNC(=O)NC(C)C)c1` [Example 61, 5-Chloro-N-[1-({3-[({[(1-methylethyl)amino]carbonyl}amino)methyl]phenyl}methyl)-4-(methyloxy)-1H-indazol-3-yl]-2-thiophenesulfonamide], for which the Kb in assay [2] is at most 126 nM. On the same count and under the same terms, the value for `CCNC(=O)NCc1cccc(Cn2nc(NS(=O)(=O)c3ccc(Cl)s3)c3c(OC)cccc32)c1` [Example 113, 5-Chloro-N-[1-{[3-({[(ethylamino)carbonyl]amino}methyl)phenyl]methyl}-4-(methyloxy)-1H-indazol-3-yl]-2-thiophenesulfonamide] was at most 126 nM. Still for that read-out and setting: the result for `COc1cccc2c1c(NS(=O)(=O)c1ccc(Cl)s1)nn2Cc1cccc(CNC(=O)CC2CCCN2)c1` (stereo not drawn) [Example 24, N-[(3-{[3-{[(5-chloro-2-thienyl)sulfonyl]amino}-4-(methyloxy)-1H-indazol-1-yl]methyl}phenyl)methyl]-2-(2-pyrrolidinyl)acetamide trifluoroacetate] reads at most 126 nM; that for `COc1cccc2c1c(NS(=O)(=O)c1ccc(Cl)s1)nn2Cc1cccc(CNC(=O)C2(N)CCC2)c1` [Example 83, 1-Amino-N-[(3-{[3-{[(5-chloro-2-thienyl)sulfonyl]amino}-4-(methyloxy)-1H-indazol-1-yl]methyl}phenyl)methyl]cyclobutanecarboxamide trifluoroacetate], at most 126 nM; that for `COc1ccc(Cn2nc(NS(=O)(=O)c3ccc(Cl)s3)c3c(OC)cccc32)cc1OCCN(C)C` [Example 110, 5-Chloro-N-[1-{[3-{[2-(dimethylamino)ethyl]oxy}-4-(methyloxy)phenyl]methyl}-4-(methyloxy)-1H-indazol-3-yl]-2-thiophenesulfonamide], at most 126 nM. Still for that read-out and setting: the result for `CNC1(C(=O)NCc2cccc(Cn3nc(NS(=O)(=O)c4ccc(Cl)s4)c4c(OC)cccc43)c2)CC1` [Example 15, N-[(3-{[3-{[(5-Chloro-2-thienyl)sulfonyl]amino}-4-(methyloxy)-1H-indazol-1-yl]methyl}phenyl)methyl]-1-(methylamino)cyclopropanecarboxamide hydrochloride] reads at most 126 nM.

The values are drawn from patent US8304446B2, “Compounds” (Glaxo Group Limited, priority 2009, dated 2012).
